Assay results from patent publication US20160367623A1, “AGONISTS OF GUANYLATE CYCLASE USEFUL FOR THE TREATMENT OF GASTROINTESTINAL DISORDERS, INFLAMMATION, CANCER AND OTHER DISORDERS” (priority 2015, published 2016).
Bridge positions count the residues as written; N and C are the ends. Ends that are not written are not given here.

System: patients with chronic idiopathic constipation (CIC)
Test: Second phase 3 CIC trial: change from baseline in stool consistency (BSFS)
Format: in vivo, human
Details: 6 mg
[1] = Post-Treatment Week 14, ITT Population-Excluding Duplicate Patients
[2] = Week 1, All Randomized (includes Duplicate Patients)
[3] = Week 1, ITT Population-Excluding Duplicate Patients
[4] = Week 2, All Randomized (includes Duplicate Patients)
[5] = Week 2, ITT Population-Excluding Duplicate Patients
[6] = Week 3, All Randomized (includes Duplicate Patients)
[7] = Week 3, ITT Population-Excluding Duplicate Patients
[8] = Week 4, All Randomized (includes Duplicate Patients)
[9] = Week 4, ITT Population-Excluding Duplicate Patients
[10] = Week 5, All Randomized (includes Duplicate Patients)
[11] = Week 5, ITT Population-Excluding Duplicate Patients
[12] = Week 6, All Randomized (includes Duplicate Patients)
[13] = Week 6, ITT Population-Excluding Duplicate Patients
[14] = Week 7, All Randomized (includes Duplicate Patients)
[15] = Week 7, ITT Population-Excluding Duplicate Patients
[16] = Week 8, All Randomized (includes Duplicate Patients)
[17] = Week 8, ITT Population-Excluding Duplicate Patients

Substance: Asn^1-Asp^2-Glu^3-Cys^4-Glu^5-Leu^6-Cys^7-Val^8-Asn^9-Val^10-Ala^11-Cys^12-Thr^13-Gly^14-Cys^15-Leu^16 (NDECELCVNVACTGCL; disulfide 4-12, 7-15) [Plecanatide, uroguanylin analogue, guanylate cyclase-C agonist; (C4:C12, C7:C15) bicycle peptide]
- Change from Baseline in Stool Consistency, LS Mean (SE) [1]: 1.07 (0.074)
- Change from Baseline in Stool Consistency, Mean (SD) [1]: 1.05 (1.358)
- Change from Baseline in Stool Consistency, Difference from Placebo [2]: 0.84
- Change from Baseline in Stool Consistency, LS Mean (SE) [2]: 1.41 (0.071)
- Change from Baseline in Stool Consistency, Mean (SD) [2]: 1.43 (1.501)
- Change from Baseline in Stool Consistency, Difference from Placebo (Week 1, ITT Population): 0.84
- Change from Baseline in Stool Consistency, LS Mean (SE) (Week 1, ITT Population): 1.44 (0.073)
- Change from Baseline in Stool Consistency, Mean (SD) (Week 1, ITT Population): 1.45 (1.501)
- Change from Baseline in Stool Consistency, Difference from Placebo [3]: 0.86
- Change from Baseline in Stool Consistency, LS Mean (SE) [3]: 1.47 (0.073)
- Change from Baseline in Stool Consistency, Mean (SD) [3]: 1.47 (1.495)
- Change from Baseline in Stool Consistency, Difference from Placebo [4]: 0.67
- Change from Baseline in Stool Consistency, LS Mean (SE) [4]: 1.36 (0.071)
- Change from Baseline in Stool Consistency, Mean (SD) [4]: 1.36 (1.560)
- Change from Baseline in Stool Consistency, Difference from Placebo (Week 2, ITT Population): 0.68
- Change from Baseline in Stool Consistency, LS Mean (SE) (Week 2, ITT Population): 1.39 (0.073)
- Change from Baseline in Stool Consistency, Mean (SD) (Week 2, ITT Population): 1.38 (1.560)
- Change from Baseline in Stool Consistency, Difference from Placebo [5]: 0.68
- Change from Baseline in Stool Consistency, LS Mean (SE) [5]: 1.41 (0.074)
- Change from Baseline in Stool Consistency, Mean (SD) [5]: 1.39 (1.562)
- Change from Baseline in Stool Consistency, Difference from Placebo [6]: 0.53
- Change from Baseline in Stool Consistency, LS Mean (SE) [6]: 1.41 (0.072)
- Change from Baseline in Stool Consistency, Mean (SD) [6]: 1.44 (1.479)
- Change from Baseline in Stool Consistency, Difference from Placebo (Week 3, ITT Population): 0.54
- Change from Baseline in Stool Consistency, LS Mean (SE) (Week 3, ITT Population): 1.44 (0.074)
- Change from Baseline in Stool Consistency, Mean (SD) (Week 3, ITT Population): 1.46 (1.480)
- Change from Baseline in Stool Consistency, Difference from Placebo [7]: 0.55
- Change from Baseline in Stool Consistency, LS Mean (SE) [7]: 1.46 (0.074)
- Change from Baseline in Stool Consistency, Mean (SD) [7]: 1.47 (1.485)
- Change from Baseline in Stool Consistency, Difference from Placebo [8]: 0.54
- Change from Baseline in Stool Consistency, LS Mean (SE) [8]: 1.41 (0.071)
- Change from Baseline in Stool Consistency, Difference from Placebo (Week 4, ITT Population): 0.52
- Change from Baseline in Stool Consistency, LS Mean (SE) (Week 4, ITT Population): 1.42 (0.074)
- Change from Baseline in Stool Consistency, Mean (SD) (Week 4, ITT Population): 1.42 (1.603)
- Change from Baseline in Stool Consistency, Difference from Placebo [9]: 0.53
- Change from Baseline in Stool Consistency, LS Mean (SE) [9]: 1.44 (0.074)
- Change from Baseline in Stool Consistency, Mean (SD) [9]: 1.42 (1.608)
- Change from Baseline in Stool Consistency, Difference from Placebo [10]: 0.67
- Change from Baseline in Stool Consistency, LS Mean (SE) [10]: 1.52 (0.072)
- Change from Baseline in Stool Consistency, Difference from Placebo (Week 5, ITT Population): 0.68
- Change from Baseline in Stool Consistency, LS Mean (SE) (Week 5, ITT Population): 1.55 (0.074)
- Change from Baseline in Stool Consistency, Mean (SD) (Week 5, ITT Population): 1.57 (1.594)
- Change from Baseline in Stool Consistency, Difference from Placebo [11]: 0.69
- Change from Baseline in Stool Consistency, LS Mean (SE) [11]: 1.58 (0.075)
- Change from Baseline in Stool Consistency, Mean (SD) [11]: 1.58 (1.598)
- Change from Baseline in Stool Consistency, Difference from Placebo [12]: 0.70
- Change from Baseline in Stool Consistency, LS Mean (SE) [12]: 1.51 (0.072)
- Change from Baseline in Stool Consistency, Difference from Placebo (Week 6, ITT Population): 0.72
- Change from Baseline in Stool Consistency, LS Mean (SE) (Week 6, ITT Population): 1.55 (0.074)
- Change from Baseline in Stool Consistency, Mean (SD) (Week 6, ITT Population): 1.57 (1.517)
- Change from Baseline in Stool Consistency, Difference from Placebo [13]: 0.74
- Change from Baseline in Stool Consistency, LS Mean (SE) [13]: 1.57 (0.075)
- Change from Baseline in Stool Consistency, Mean (SD) [13]: 1.58 (1.520)
- Change from Baseline in Stool Consistency, Difference from Placebo [14]: 0.64
- Change from Baseline in Stool Consistency, LS Mean (SE) [14]: 1.50 (0.072)
- Change from Baseline in Stool Consistency, Difference from Placebo (Week 7, ITT Population): 0.64
- Change from Baseline in Stool Consistency, LS Mean (SE) (Week 7, ITT Population): 1.54 (0.074)
- Change from Baseline in Stool Consistency, Mean (SD) (Week 7, ITT Population): 1.56 (1.540)
- Change from Baseline in Stool Consistency, Difference from Placebo [15]: 0.67
- Change from Baseline in Stool Consistency, LS Mean (SE) [15]: 1.56 (0.075)
- Change from Baseline in Stool Consistency, Mean (SD) [15]: 1.57 (1.544)
- Change from Baseline in Stool Consistency, Difference from Placebo [16]: 0.57
- Change from Baseline in Stool Consistency, LS Mean (SE) [16]: 1.48 (0.072)
- Change from Baseline in Stool Consistency, Difference from Placebo (Week 8, ITT Population): 0.58
- Change from Baseline in Stool Consistency, LS Mean (SE) (Week 8, ITT Population): 1.51 (0.074)
- Change from Baseline in Stool Consistency, Mean (SD) (Week 8, ITT Population): 1.53 (1.539)
- Change from Baseline in Stool Consistency, Difference from Placebo [17]: 0.60
- Change from Baseline in Stool Consistency, LS Mean (SE) [17]: 1.53 (0.075)
- Change from Baseline in Stool Consistency, Mean (SD) [17]: 1.54 (1.543)
- Change from Baseline in Stool Consistency, Difference from Placebo (Week 9, All Randomized (includes Duplicate Patients)): 0.67
